Data as given in PMC4582818, “Identification of novel metabolic interactions controlling carbon flux from xylose to ethanol in natural and recombinant yeasts” (Biotechnology for Biofuels, 2015).
One block for each molecule: values may come before it.

Tests used:
CtXR [1] = biological target: T1, CtXR (Yamadazyma tenuis, UniProt O74237); test: steady-state kinetics; assay type: biochemical
T1 construct: gene XYL1; xylose reductase of C. tenuis CBS4435; preparation described only in Additional file 3
T1 sequence (O74237 1-322): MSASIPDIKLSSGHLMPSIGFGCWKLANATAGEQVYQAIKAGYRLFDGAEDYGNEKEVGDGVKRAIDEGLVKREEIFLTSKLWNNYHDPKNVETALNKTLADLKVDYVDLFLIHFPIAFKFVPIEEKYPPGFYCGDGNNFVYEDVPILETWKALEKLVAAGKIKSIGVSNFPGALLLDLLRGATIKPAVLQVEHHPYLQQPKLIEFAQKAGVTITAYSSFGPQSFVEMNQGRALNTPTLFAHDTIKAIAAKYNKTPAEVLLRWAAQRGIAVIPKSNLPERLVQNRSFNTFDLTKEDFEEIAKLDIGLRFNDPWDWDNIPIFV
Source text: (§1) steady-state kinetics on CtXR

CtG6PDH = biological target: T2, CtG6PDH (Yamadazyma tenuis, UniProt G3B8L7); test: enzyme kinetics, product inhibition; assay type: cell-based; settings: competitive product inhibition; read-out: K i,NADPH
T2 construct: gene CANTEDRAFT_115211; native enzyme, probably in cell-free extract of CBS4435 (details only in Additional file 3)
T2 sequence (G3B8L7 1-502): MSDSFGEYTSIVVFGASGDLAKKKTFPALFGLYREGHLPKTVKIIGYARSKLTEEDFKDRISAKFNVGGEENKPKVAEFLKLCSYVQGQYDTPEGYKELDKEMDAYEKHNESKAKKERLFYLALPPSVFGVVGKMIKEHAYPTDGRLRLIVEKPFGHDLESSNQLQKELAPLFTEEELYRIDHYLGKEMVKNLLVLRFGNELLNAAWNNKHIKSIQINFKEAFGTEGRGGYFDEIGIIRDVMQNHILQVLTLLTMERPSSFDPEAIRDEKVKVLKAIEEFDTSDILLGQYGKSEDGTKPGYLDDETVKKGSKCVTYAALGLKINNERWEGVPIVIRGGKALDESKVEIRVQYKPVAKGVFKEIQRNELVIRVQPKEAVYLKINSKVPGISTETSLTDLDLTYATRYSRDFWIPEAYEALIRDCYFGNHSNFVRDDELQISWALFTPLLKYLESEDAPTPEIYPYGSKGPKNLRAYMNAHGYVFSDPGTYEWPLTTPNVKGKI
Source text: enzyme kinetics, product inhibition on CtG6PDH

CtXR [2] = biological target: T1, CtXR; test: ligand-binding analysis by fluorescence spectroscopy; settings: read-out: NADP(H) (R 2) / PP (R 5), UG (R 9), LG (R 10)
Source text: ligand-binding analysis by fluorescence spectroscopy on CtXR

steady-state kinetics [3] = substrate: NC(=O)c1ccc[n+]([C@@H]2O[C@H](COP(=O)(O)OP(=O)(O)OC[C@H]3O[C@@H](n4cnc5c(N)ncnc54)[C@H](OP(=O)(O)O)[C@@H]3O)[C@@H](O)[C@H]2O)c1; test: steady-state kinetics; assay type: biochemical, Yamadazyma tenuis; settings: xylitol oxidation; pH 7.5; 25.0 °C; varied: cofactor
Source text: as §1

steady-state kinetics [4] = substrate: NC(=O)C1=CN([C@@H]2O[C@H](COP(=O)(O)OP(=O)(O)OC[C@H]3O[C@@H](n4cnc5c(N)ncnc54)[C@H](OP(=O)(O)O)[C@@H]3O)[C@@H](O)[C@H]2O)C=CC1; test: steady-state kinetics; assay type: biochemical, Yamadazyma tenuis; settings: xylose reduction; pH 7.5; 25.0 °C; varied: cofactor
Source text: as §1

steady-state kinetics [5] = substrate: NC(=O)C1=CN([C@@H]2O[C@H](COP(=O)(O)OP(=O)(O)OC[C@H]3O[C@@H](n4cnc5c(N)ncnc54)[C@H](O)[C@@H]3O)[C@@H](O)[C@H]2O)C=CC1; test: steady-state kinetics; assay type: biochemical, Yamadazyma tenuis; settings: xylose reduction; pH 7.5; 25.0 °C; varied: cofactor
Source text: as §1

steady-state kinetics [6] = substrate: NC(=O)c1ccc[n+]([C@@H]2O[C@H](COP(=O)(O)OP(=O)(O)OC[C@H]3O[C@@H](n4cnc5c(N)ncnc54)[C@H](O)[C@@H]3O)[C@@H](O)[C@H]2O)c1; test: steady-state kinetics; assay type: biochemical, Yamadazyma tenuis; settings: xylitol oxidation; pH 7.5; 25.0 °C; varied: cofactor
Source text: as §1

Ki (CtXR [1]; read-out: NAD(H) (R 1)): 344 ± 30 µM
Molecule: NC(=O)c1ccc[n+]([C@@H]2O[C@H](COP(=O)(O)OP(=O)(O)OC[C@H]3O[C@@H](n4cnc5c(N)ncnc54)[C@H](O)[C@@H]3O)[C@@H](O)[C@H]2O)c1 [NAD^+]

Ki (CtG6PDH): 200 µM
Molecule: NC(=O)C1=CN([C@@H]2O[C@H](COP(=O)(O)OP(=O)(O)OC[C@H]3O[C@@H](n4cnc5c(N)ncnc54)[C@H](OP(=O)(O)O)[C@@H]3O)[C@@H](O)[C@H]2O)C=CC1 [NADPH]

NAD(H) (R 1) (CtXR [1]; dissociation constant of NADH in the rate equation, xylose reduction): 0.18 ± 0.04 mM
Molecule: NC(=O)C1=CN([C@@H]2O[C@H](COP(=O)(O)OP(=O)(O)OC[C@H]3O[C@@H](n4cnc5c(N)ncnc54)[C@H](O)[C@@H]3O)[C@@H](O)[C@H]2O)C=CC1 [NADH]

Molecule: NC(=O)c1ccc[n+]([C@@H]2O[C@H](COP(=O)(O)OP(=O)(O)OC[C@H]3O[C@@H](n4cnc5c(N)ncnc54)[C@H](OP(=O)(O)O)[C@@H]3O)[C@@H](O)[C@H]2O)c1 [NADP^+]
Kd (CtXR [2]): 5.9 ± 0.4 µM

B1: CtXR (Yamadazyma tenuis) (protein)
chain: T1 sequence (O74237 1-322)
notes: xylose reductase of C. tenuis CBS4435; preparation described only in Additional file 3
Km (steady-state kinetics [3]): 8 ± 1 µM
Km (steady-state kinetics [4]): 5 ± 2 µM
Km (steady-state kinetics [5]): 40 ± 10 µM
Km (steady-state kinetics [6]): 19 ± 5 µM
